In patent publication US11608323B2 (SYNGENTA LIMITED, priority 2013, dated 2023):

Experiments:
Assay type in all cases: in vivo
[1] = tested on: ABUTH; test: Pre-emergence herbicidal activity, glasshouse pot test; conditions: rate 1000 g/Ha, evaluated after 13 days, scale 0-5
Experimental: (§1) Seeds of a variety of test species were sown in standard soil in pots. After cultivation for one day (pre-emergence) under controlled conditions in a glasshouse (at 24/16° C., day/night; 14 hours light; 65% humidity), the plants were sprayed with an aqueous spray solution derived from the formulation of the technical active ingredient in acetone/water (50:50) solution containing 0.5% Tween 20 (polyoxyethelyene sorbitan monolaurate, CAS RN 9005-64-5). The test plants were then grown in a glasshouse under controlled conditions (at 24/16° C., day/night; 14 hours light; 65% humidity) and watered twice daily. After 13 days, the test was evaluated (5=total damage to plant; 0=no damage to plant).

[2] = tested on: AMARE; test: as above; conditions: rate 1000 g/Ha, evaluated after 13 days, scale 0-5
Experimental: as §1

[3] = tested on: ECHCG; test: as above; conditions: rate 1000 g/Ha, evaluated after 13 days, scale 0-5
Experimental: as §1

[4] = tested on: SETFA; test: as above; conditions: rate 1000 g/Ha, evaluated after 13 days, scale 0-5
Experimental: as §1

[5] = tested on: ZEAMX; test: as above; conditions: rate 1000 g/Ha, evaluated after 13 days, scale 0-5
Experimental: as §1

[6] = tested on: ABUTH; test: Post-emergence herbicidal activity, glasshouse pot test; conditions: Abutilon theophrasti; application post-emergence; rate 1000 g/Ha; evaluated after 13 days
Experimental: (§2) Seeds of a variety of test species were sown in standard soil in pots. After 8 days cultivation (post-emergence) under controlled conditions in a glasshouse (at 24/16° C., day/night; 14 hours light; 65% humidity), the plants were sprayed with an aqueous spray solution derived from the formulation of the technical active ingredient in acetone/water (50:50) solution containing 0.5% Tween 20 (polyoxyethelyene sorbitan monolaurate, CAS RN 9005-64-5). The test plants were then grown in a glasshouse under controlled conditions (at 24/16° C., day/night; 14 hours light; 65% humidity) and watered twice daily. After 13 days, the test was evaluated (5=total damage to plant; 0=no damage to plant).

[7] = tested on: AMARE; test: as above; conditions: Amaranthus retroflexus; application post-emergence; rate 1000 g/Ha; evaluated after 13 days
Experimental: as §2

[8] = tested on: ECHCG; test: as above; conditions: Echinochloa crus-galli; application post-emergence; rate 1000 g/Ha; evaluated after 13 days
Experimental: as §2

[9] = tested on: SETFA; test: as above; conditions: Setaria faberi; application post-emergence; rate 1000 g/Ha; evaluated after 13 days
Experimental: as §2

[10] = tested on: ZEAMX; test: as above; conditions: Zea mays; application post-emergence; rate 1000 g/Ha; evaluated after 13 days
Experimental: as §2

SMILES	ABUTH damage score, application pre-emergence [1]	AMARE damage score, application pre-emergence [2]	ECHCG damage score, application pre-emergence [3]	SETFA damage score, application pre-emergence [4]	ZEAMX damage score, application pre-emergence [5]	Post-emergence herbicidal activity ABUTH (damage score 0-5) [6]	Post-emergence herbicidal activity AMARE (damage score 0-5) [7]	Post-emergence herbicidal activity ECHCG (damage score 0-5) [8]	Post-emergence herbicidal activity SETFA (damage score 0-5) [9]	Post-emergence herbicidal activity ZEAMX (damage score 0-5) [10]
C[C@@H]1C(O)N(c2cc(C(F)(F)F)ccn2)C(=O)N1C (mixture of isomers) [Compound A38, (4R,5R)-4-hydroxy-1,5-dimethyl-3-[4-(trifluoromethyl)-2-pyridyl]imidazolidin-2-one and (4S,5R)-4-hydroxy-1,5-dimethyl-3-[4-(trifluoromethyl)-2-pyridyl]imidazolidin-2-one]	5	5	5	5	3	5	5	5	5	4
CCO[C@@H]1C(O)N(c2cc(C(F)(F)F)ccn2)C(=O)N1C (single isomer, unassigned) [Compound A34]	5	5	5	5	3	5	5	5	5	4
CCO[C@H]1C(O)N(c2cc(C(F)(F)F)ccn2)C(=O)N1C (single isomer, unassigned) [Compound A35]	4	5	4	4	2	0	5	3	3	1
CC1C(O)N(c2cc(C(F)(F)C(F)(F)F)ccn2)C(=O)N1C (single isomer, unassigned) [Compound A72]	5	5	5	5	2	5	5	5	5	2
CON1C(=O)N(c2cc(C(C)(F)F)ccn2)C(O)C1C (single isomer, unassigned) [Compound A93]	5	5	5	5	3	5	5	5	5	4
O=C1N2COCC2C(O)N1c1cc(C(F)(F)F)ccn1 (single isomer, unassigned) [Compound A94]	5	5	5	5	4	5	5	5	5	5
